Experimental data: ChEMBL document CHEMBL3774317, “Design and synthesis of novel tamoxifen analogues that avoid CYP2D6 metabolism” (Eur J Med Chem, 2016)

Key:
Assay type in all cases: functional
HT-29 = assay: Cytotoxicity against human HT-29 cells assessed as cell growth at 10^-7 M after 48 hrs by SRB assay; conditions: HT-29, 48 h, read-out: Activity
[1] = Cytotoxicity against human SF539 cells assessed as cell growth at 10^-7 M after 48 hrs by SRB assay; conditions: SF-539, 48 h, read-out: Activity
A498 [2] = assay: Cytotoxicity against human A498 cells assessed as cell growth at 10^-7 M after 48 hrs by SRB assay; conditions: A498, 48 h, read-out: Activity
[3] = Cytotoxicity against human HCC2998 cells assessed as cell growth at 10^-6 M after 48 hrs by SRB assay; conditions: HCC 2998, 48 h, read-out: Activity
[4] = Cytotoxicity against human RXF393 cells assessed as cell growth at 10^-4 M after 48 hrs by SRB assay; conditions: RXF 393, 48 h, read-out: Activity
T47D [5] = assay: Cytotoxicity against human T47D cells assessed as cell growth at 10^-4 M after 48 hrs by SRB assay; conditions: read-out: Activity
SR = assay: Cytotoxicity against human SR cells assessed as cell growth at 10^-5 M after 48 hrs by SRB assay; conditions: read-out: Activity
NCI-H23 = assay: Cytotoxicity against human NCI-H23 cells assessed as cell growth at 10^-5 M after 48 hrs by SRB assay; conditions: NCI-H23, 48 h, read-out: Activity
[6] = Cytotoxicity against human HOP62 cells assessed as cell growth at 10^-8 M after 48 hrs by SRB assay; conditions: HOP-62, 48 h, read-out: Activity
[7] = Cytotoxicity against human OVCAR8 cells assessed as cell growth at 10^-8 M after 48 hrs by SRB assay; conditions: OVCAR-8, 48 h, read-out: Activity
[8] = Cytotoxicity against human MOLT4 cells assessed as cell growth at 10^-7 M after 48 hrs by SRB assay; conditions: MOLT-4, 48 h, read-out: Activity
[9] = Cytotoxicity against human OVCAR4 cells assessed as cell growth at 10^-5 M after 48 hrs by SRB assay; conditions: OVCAR-4, 48 h, read-out: Activity
A498 [10] = assay: Cytotoxicity against human A498 cells assessed as cell growth at 10^-5 M after 48 hrs by SRB assay; conditions: A498, 48 h, read-out: Activity
ACHN [11] = assay: Cytotoxicity against human ACHN cells assessed as cell growth at 10^-5 M after 48 hrs by SRB assay; conditions: read-out: Activity
[12] = Cytotoxicity against human HCT116 cells assessed as cell growth at 10^-4 M after 48 hrs by SRB assay; conditions: HCT-116, 48 h, read-out: Activity
[13] = Cytotoxicity against human HCT15 cells assessed as cell growth at 10^-4 M after 48 hrs by SRB assay; conditions: HCT-15, 48 h, read-out: Activity
[14] = Cytotoxicity against human SNB19 cells assessed as cell growth at 10^-4 M after 48 hrs by SRB assay; conditions: SNB-19, 48 h, read-out: Activity
M14 [15] = assay: Cytotoxicity against human M14 cells assessed as cell growth at 10^-4 M after 48 hrs by SRB assay; conditions: M14, 48 h, read-out: Activity
[16] = Cytotoxicity against human UACC257 cells assessed as cell growth at 10^-4 M after 48 hrs by SRB assay; conditions: UACC-257, 48 h, read-out: Activity
[17] = Cytotoxicity against human IGROV1 cells assessed as cell growth at 10^-4 M after 48 hrs by SRB assay; conditions: IGROV-1, 48 h, read-out: Activity
NCI-H226 [18] = assay: Cytotoxicity against human NCI-H226 cells assessed as cell growth at 50 nM after 48 hrs by SRB assay; conditions: NCI-H226, 48 h, read-out: Activity
[19] = Cytotoxicity against human HCC2998 cells assessed as cell growth at 50 nM after 48 hrs by SRB assay; conditions: HCC 2998, 48 h, read-out: Activity
[20] = Cytotoxicity against human SF539 cells assessed as cell growth at 50 nM after 48 hrs by SRB assay; conditions: SF-539, 48 h, read-out: Activity
U-251 [21] = assay: Cytotoxicity against human U251 cells assessed as cell growth at 50 nM after 48 hrs by SRB assay; conditions: U-251, 48 h, read-out: Activity
[22] = Cytotoxicity against human UACC257 cells assessed as cell growth at 50 nM after 48 hrs by SRB assay; conditions: UACC-257, 48 h, read-out: Activity
[23] = Cytotoxicity against human HL-60(TB) cells assessed as cell growth at 0.5 uM after 48 hrs by SRB assay; conditions: HL-60, 48 h, read-out: Activity
[24] = Cytotoxicity against human RPMI8226 cells assessed as cell growth at 0.5 uM after 48 hrs by SRB assay; conditions: RPMI-8226, 48 h, read-out: Activity
M14 [25] = assay: Cytotoxicity against human M14 cells assessed as cell growth at 50 uM after 48 hrs by SRB assay; conditions: M14, 48 h, read-out: Activity
MDA-MB-435 = assay: Cytotoxicity against human MDA-MB-435 cells assessed as cell growth at 50 uM after 48 hrs by SRB assay; conditions: MDA-MB-435, 48 h, read-out: Activity
SK-MEL-2 = assay: Cytotoxicity against human SK-MEL-2 cells assessed as cell growth at 50 uM after 48 hrs by SRB assay; conditions: SK-MEL-2, 48 h, read-out: Activity
ACHN [26] = assay: Cytotoxicity against human ACHN cells assessed as cell growth at 50 uM after 48 hrs by SRB assay; conditions: read-out: Activity
[27] = Cytotoxicity against human Hs 578T cells assessed as cell growth at 50 uM after 48 hrs by SRB assay; conditions: read-out: Activity
T47D [28] = assay: Cytotoxicity against human T47D cells assessed as cell growth at 50 uM after 48 hrs by SRB assay; conditions: read-out: Activity
[29] = Cytotoxicity against human UACC62 cells assessed as cell growth at 0.5 uM after 48 hrs by SRB assay; conditions: UACC-62, 48 h, read-out: Activity
MDA-MB-231 = assay: Cytotoxicity against human MDA-MB-231 cells assessed as cell growth at 0.5 uM after 48 hrs by SRB assay; conditions: MDA-MB-231, 48 h, read-out: Activity
CCRF-CEM = assay: Cytotoxicity against human CCRF-CEM cells assessed as cell growth at 5 uM after 48 hrs by SRB assay; conditions: read-out: Activity
NCI-H322M = assay: Cytotoxicity against human NCI-H322M cells assessed as cell growth at 5 uM after 48 hrs by SRB assay; conditions: read-out: Activity
[30] = Cytotoxicity against human HCC2998 cells assessed as cell growth at 5 nM after 48 hrs by SRB assay; conditions: HCC 2998, 48 h, read-out: Activity
U-251 [31] = assay: Cytotoxicity against human U251 cells assessed as cell growth at 5 nM after 48 hrs by SRB assay; conditions: U-251, 48 h, read-out: Activity
K562 = assay: Cytotoxicity against human K562 cells assessed as cell growth at 50 uM after 48 hrs by SRB assay; conditions: K562, 48 h, read-out: Activity
NCI-H226 [32] = assay: Cytotoxicity against human NCI-H226 cells assessed as cell growth at 50 uM after 48 hrs by SRB assay; conditions: NCI-H226, 48 h, read-out: Activity

## C/C(=C(/c1ccc(O)cc1)c1ccc(OCCN2CCCC2)cc1)c1ccccc1
HT-29
  growth at 0.1 µM: 97%
[1]
  growth at 0.1 µM: 101%
A498 [2]
  growth at 0.1 µM: 60%
[3]
  growth at 1 µM: 94%
[4]
  growth at 100 µM: -81%
T47D [5]
  growth at 100 µM: -67%
SR
  growth at 10 µM: -25%
NCI-H23
  growth at 10 µM: 29%
[6]
  growth at 0.01 µM: 90%
[7]
  growth at 0.01 µM: 104%
[8]
  growth at 0.1 µM: 101%
[9]
  growth at 10 µM: 31%
A498 [10]
  growth at 10 µM: -5%
ACHN [11]
  growth at 10 µM: 25%
[12]
  growth at 100 µM: -98%
[13]
  growth at 100 µM: -100%
[14]
  growth at 100 µM: -74%
M14 [15]
  growth at 100 µM: -96%
[16]
  growth at 100 µM: -99%
[17]
  growth at 100 µM: -54%

## CCCCCCCCCC(=O)Oc1ccc(/C(=C(/C)c2ccccc2)c2ccc(OCCN3CCCC3)cc2)cc1
NCI-H226 [18]
  growth at 0.05 µM: 94%
[19]
  growth at 0.05 µM: 98%
[20]
  growth at 0.05 µM: 98%
U-251 [21]
  growth at 0.05 µM: 95%
[22]
  growth at 0.05 µM: 102%
[23]
  growth at 0.5 µM: 75%
[24]
  growth at 0.5 µM: 61%
M14 [25]
  growth at 50 µM: -81%
MDA-MB-435
  growth at 50 µM: -100%
SK-MEL-2
  growth at 50 µM: -79%
ACHN [26]
  growth at 50 µM: -92%
[27]
  growth at 50 µM: -18%
T47D [28]
  growth at 50 µM: -61%
[29]
  growth at 0.5 µM: 64%
MDA-MB-231
  growth at 0.5 µM: 96%
CCRF-CEM
  growth at 5 µM: 88%
NCI-H322M
  growth at 5 µM: 85%
[30]
  growth at 0.005 µM: 98%
U-251 [31]
  growth at 0.005 µM: 98%
K562
  growth at 50 µM: -70%
NCI-H226 [32]
  growth at 50 µM: -74%
